US8188078B2 (Sanofi-Aventis, priority 2007, dated 2012)

Columns and labels:
c-MET = target: T1, c-MET (Homo sapiens, UniProt P08581); test: Test A: HTRF Met test in 96-well format; assay type: biochemical
T1 construct: The recombinant DNA His-Tev-MET (956-1390) in pFastBac(Invitrogen); His (N, cleaved yes); Tev (TEV protease site) (N, cleaved yes); made in house; host or cells: SF21 insect cells (baculovirus, pFastBac)
Experimental: I) Expression and Purification of MET, Cytoplasmic Domain
The recombinant DNA His-Tev-MET (956-1390) in pFastBac(Invitrogen) is transfected in insect cells and after several stages of viral amplification, the final stock of baculovirus is tested for expression of the protein of interest.
After infection for 72 h at 27° C. with the recombinant virus, the SF21 cell cultures are harvested by centrifugation and the cellular deposits are stored at −80° C.
The cellular deposits are resuspended in the lysis buffer (buffer A [50 mM HEPES, pH 7.5, 250 mM NaCl, Glycerol 10%, TECP 1 mM]; +cocktail of protease inhibitors Roche Diagnostics without EDTA, ref 1873580), stirred at 4° C. until homogeneous, then lysed mechanically using apparatus of the “Dounce” type.
After centrifugation, the lysis supernatant is incubated for 2 h at 4° C. with Nickel Chelate resin (His-Trap 6 Fast Flow™, GE HealthCare). After washing with 20 volumes of Tp A, the suspension is packed in a column, and the proteins are eluted with a gradient of buffer B ([…]+290 mM imidazole).
The fractions containing the protein of interest with a view to electrophoretic analysis (SDS PAGE) are collected, concentrated by ultrafiltration (cut-off 10 kDa) and injected in an exclusion chromatography column (Superdex™ 200, GE HealthCare) equilibrated with buffer A.
After enzymatic cleavage of the tag Histidine, the protein is reinjected in a new IMAC Nickel Chelate chromatography column (His-Trap 6 Fast Flow™, GE HealthCare) equilibrated with Buffer A. The fractions eluted with a gradient of buffer B and containing the protein of interest after electrophoresis (SDS PAGE), are finally collected and stored at −80° C.
For the production of autophosphorylated protein, the preceding fractions are incubated for 1 h at room temperature after adding ATP 2 mM, MgCl2 2 mM, and Na3VO4 4 mM. After stopping the reaction with 5 mM of EDTA, the reaction mixture is injected in a HiPrep desalting column (GE HealthCare) equilibrated beforehand with buffer A+Na3VO4 4 mM; the fractions containing the protein of interest (SDS PAGE analysis) are collected and stored at −80° C. The degree of phosphorylation is verified by mass spectrometry (LC-MS), and by peptide mapping.
A) HTRF Met test in 96-well format
In a final volume of 50 μl of enzymatic reaction mixture, final c-MET 5 nM is incubated in the presence of the molecule to be tested (for a final concentration range from 0.17 nM to 10 μM, final DMSO 3%) in buffer MOPS 10 mM pH 7.4, DTT 1 mM, Tween 20 0.01%. The reaction is initiated by the substrate solution to obtain the final concentrations of poly-(GAT) 1 μg/ml, ATP 10 μM and MgCl2 5 mM. After incubation for 10 min at room temperature, the reaction is stopped with a mix of 30 μl to obtain a final solution of Hepes 50 mM pH 7.5, potassium fluoride 500 mM, BSA 0.1% and EDTA 133 mM in the presence of 80 ng Streptavidin 61SAXLB Cis-Bio Int. and 18 ng anti-phosphotyrosine Mab PT66-Europium Cryptate per well. After 2 hours of incubation at room temperature, reading is carried out at 2 wavelengths 620 nm and 665 nm in a reader for the TRACE/HTRF technique and the percentage inhibition is calculated according to the 665/620 ratios.

MET = target: T2, MET (Homo sapiens, UniProt P08581); test: Test C: inhibition of the autophosphorylation of MET, ELISA technique (pppY1230, 1234, 1235), MKN45 cells; assay type: cell-based
T2 construct: endogenous in cells; host or cells: MKN45 cells
T2 sequence (P08581 25-1390): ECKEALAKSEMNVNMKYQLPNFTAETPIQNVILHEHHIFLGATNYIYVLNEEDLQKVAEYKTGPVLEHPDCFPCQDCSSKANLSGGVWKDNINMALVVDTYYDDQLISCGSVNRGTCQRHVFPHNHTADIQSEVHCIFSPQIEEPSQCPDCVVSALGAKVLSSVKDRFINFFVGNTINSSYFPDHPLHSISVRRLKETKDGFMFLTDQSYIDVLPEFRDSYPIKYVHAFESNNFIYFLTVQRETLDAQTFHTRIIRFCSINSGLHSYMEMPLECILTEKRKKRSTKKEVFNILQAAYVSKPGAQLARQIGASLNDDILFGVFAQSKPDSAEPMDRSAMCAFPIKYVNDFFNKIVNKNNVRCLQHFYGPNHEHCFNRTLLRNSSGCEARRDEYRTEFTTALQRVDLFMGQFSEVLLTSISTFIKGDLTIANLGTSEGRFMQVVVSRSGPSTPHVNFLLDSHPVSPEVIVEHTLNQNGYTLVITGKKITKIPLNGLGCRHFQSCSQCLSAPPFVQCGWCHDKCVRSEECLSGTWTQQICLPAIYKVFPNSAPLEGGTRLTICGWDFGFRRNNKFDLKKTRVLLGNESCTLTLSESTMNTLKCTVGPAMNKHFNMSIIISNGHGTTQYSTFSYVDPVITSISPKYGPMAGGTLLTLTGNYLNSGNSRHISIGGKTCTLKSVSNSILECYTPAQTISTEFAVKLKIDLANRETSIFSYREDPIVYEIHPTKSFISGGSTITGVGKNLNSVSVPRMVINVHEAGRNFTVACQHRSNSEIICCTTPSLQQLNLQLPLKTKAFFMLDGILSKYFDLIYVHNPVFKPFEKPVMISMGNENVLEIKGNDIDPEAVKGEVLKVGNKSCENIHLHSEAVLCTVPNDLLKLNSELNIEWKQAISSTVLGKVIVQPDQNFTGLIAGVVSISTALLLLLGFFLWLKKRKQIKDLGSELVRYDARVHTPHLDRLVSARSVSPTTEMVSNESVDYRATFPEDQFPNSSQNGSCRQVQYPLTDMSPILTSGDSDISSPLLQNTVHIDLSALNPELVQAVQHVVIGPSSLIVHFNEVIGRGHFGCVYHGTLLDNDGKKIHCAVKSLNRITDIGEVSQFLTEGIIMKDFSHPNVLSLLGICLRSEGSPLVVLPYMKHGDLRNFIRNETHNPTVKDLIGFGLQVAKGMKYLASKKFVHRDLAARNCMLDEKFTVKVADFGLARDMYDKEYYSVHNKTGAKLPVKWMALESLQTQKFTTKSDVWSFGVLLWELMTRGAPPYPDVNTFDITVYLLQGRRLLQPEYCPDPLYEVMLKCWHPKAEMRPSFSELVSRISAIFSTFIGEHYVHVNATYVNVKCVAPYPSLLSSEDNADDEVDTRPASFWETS
Experimental: C) Inhibition of the Autophosphorylation of MET; ELISA Technique (pppY1230, 1234, 1235)
a) Cellular lysates: Sow the MKN45 cells in a 96-well plate (Cell coat BD polylysine) at 20 000 cells/well under 200 μl of medium RPMI+10% FCS+1% L-glutamine. Leave to adhere to the incubator for 24 h.
The cells are treated on the day after sowing with the products at 6 concentrations in duplicate for 1 h. At least 3 control wells are treated with the same amount of final DMSO.
Dilution of the products: Stock at 10 mM in pure DMSO—range from 10 mM to 30 μM with steps of 3 of pure DMSO—Intermediate dilutions to 1/50 in culture medium then taking of 10 μl added directly to the cells (200 μl): final range from 10000 to 30 nM.
At the end of incubation, carefully remove the supernatant and rinse with 200 μl of PBS. Then put 100 μl of lysis buffer directly in the wells on ice and incubate at 4° C. for 30 minutes. Lysis buffer: 10 mM Tris, HCl pH7.4, 100 mM NaCl, 1 mM EDTA, 1 mM EGTA, 1% Triton X-100, 10% glycerol, 0.1% SDS, 0.5% deoxycholate, 20 mM NaF, 2 mM Na3VO4, 1 mM PMSF and antiprotease cocktail.
The 100 μl of lysates are transferred to a V-bottomed polypropylene plate and ELISA is performed next or the plate is frozen at −80° C.
b) ELISA PhosphoMET BioSource Kit KH00281
In each well of the plate from the kit, add 70 μl of dilution buffer from the kit+30 μL of cell lysate or 30 μl of lysis buffer for the blank. Incubate for 2 h at room temperature, stirring gently.
Rinse the wells 4 times with 400 μl of washing buffer from the kit. Incubate with 100 μl of anti-phospho MET antibodies for 1 h at room temperature.
Rinse the wells 4 times with 400 μl of washing buffer from the kit. Incubate with 100 μl of anti-rabbit HRP antibodies for 30 minutes at room temperature (except for the wells with chromogen only).
Rinse the wells 4 times with 400 μl of washing buffer from the kit. Add 100 μL of chromogen and incubate for 30 minutes in the dark at room temperature.
Stop the reaction with 100 μl of stop solution. Read at once at […] 0.1 second in the Wallac Victor plate reader.
The products of formula (I) as defined above show cellular activity in this test between 10 nM and 10 μM.

MKN45 cells = test: Test D: cellular proliferation by 14C-thymidine pulse, MKN45 cells; assay type: cell-based; conditions: cell line not stated (HCT116 or MKN45)
Experimental: D) Measurement of Cellular Proliferation by 14C-Thymidine Pulse
The cells are sown in Cytostar 96-well plates under 180 μl for 4 hours at 37° C. and 5% CO2: The HCT116 cells at a rate of 2500 cells per well in DMEM medium+10% foetal calf serum+1% of L-glutamine and the MKN45 cells at a rate of 7500 cells per well in RPMI medium+10% foetal calf serum+1% of L-glutamine. After said incubation for 4 hours, the products are added under 10 μl in 20-times concentrated solution according to the method of dilution stated for ELISA. The products are tested at 10 concentrations in duplicate from 10000 nM to 0.3 nM in steps of 3.
After treatment for 72 h, add 10 μl of 14C-thymidine at 10 μCi/ml to obtain 0.1 μCi per well. The incorporation of 14C-thymidine is measured on a Micro-Beta (Perkin-Elmer) after 24 hours of pulse and 96 h of treatment.
All the stages of the test are automated on the BIOMEK 2000 or TECAN stations.

[1] = Homo sapiens, MKN-45, cellular proliferation by 14C-thymidine pulse

T1 sequence (P08581 956-1390): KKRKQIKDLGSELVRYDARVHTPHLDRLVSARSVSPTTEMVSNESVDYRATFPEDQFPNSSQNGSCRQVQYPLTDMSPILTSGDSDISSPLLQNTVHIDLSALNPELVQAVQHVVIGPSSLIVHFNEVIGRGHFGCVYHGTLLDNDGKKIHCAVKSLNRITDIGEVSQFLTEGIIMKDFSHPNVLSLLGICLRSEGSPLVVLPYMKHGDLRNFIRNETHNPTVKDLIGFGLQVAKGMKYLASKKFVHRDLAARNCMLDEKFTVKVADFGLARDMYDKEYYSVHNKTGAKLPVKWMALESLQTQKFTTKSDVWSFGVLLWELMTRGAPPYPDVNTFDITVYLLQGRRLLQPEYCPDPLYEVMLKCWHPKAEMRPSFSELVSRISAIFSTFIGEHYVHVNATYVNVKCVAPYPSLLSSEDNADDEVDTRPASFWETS

Work on `CC(Oc1ccc2nc(NC(=O)NCCN3CCOCC3)sc2c1)c1c(Cl)ccc(F)c1Cl` (single isomer, unassigned) [Example 26, 1-{6-[(1S*)-(2,6-dichloro-3-fluorophenyl)ethoxy]-1,3-benzothiazol-2-yl}-3-(2-morpholin-4-ylethyl)urea] yielded an IC50 (c-MET) of 100 to 10000 nM and an IC50 (MET) of 500 to 10000 nM.
`CC(Oc1cc2sc(NC(=O)NCCN)nc2cc1F)c1c(Cl)ccc(F)c1Cl` (single isomer, unassigned) [Example 90, 1-(2-aminoethyl)-3-{6-[(1S*)-1-(2,6-dichloro-3-fluorophenyl)ethoxy]-5-fluoro-1,3-benzothiazol-2-yl}urea] showed an IC50 (c-MET) of under 100 nM and an IC50 (MKN45 cells; cellular proliferation by 14C-thymidine pulse) of 500 to 10000 nM.
`Nc1nc2ccc(OCc3c(F)cccc3Cl)cc2s1` [Example 8, 6-[(2-chloro-6-fluorobenzyl)oxy]-1,3-benzothiazol-2-amine] showed an IC50 (c-MET) of 100 to 10000 nM, an IC50 (MKN45 cells; [1]) of over 10000 nM and a melting point of 175 °C.
`O=C(Nc1nc2ccc(OCc3c(Cl)cccc3Cl)cc2s1)C1CC1` [Example 9, N-{6-[(2,6-dichlorobenzyl)oxy]-1,3-benzothiazol-2-yl}cyclopropane carboxamide] gave an IC50 (c-MET) of under 100 nM, an IC50 (MKN45 cells; [1]) of under 500 nM and a melting point of 178 °C.
With `Nc1nc2ccc(OCc3c(F)cccc3F)cc2s1` [Example 12, 6-[(2,6-difluorobenzyl)oxy]-1,3-benzothiazol-2-amine] the IC50 (MKN45 cells; [1]) was over 10000 nM and the melting point was 178 °C.
For `CC(Oc1ccc2nc(NC(=O)NCCC3CCN(C(=O)OC(C)(C)C)CC3)sc2c1)c1c(Cl)ccc(F)c1Cl` (centres unmarked) [Example 38, 1,1-dimethylethyl 4-{2-[({6-[1-(2,6-dichloro-3-fluorophenyl)ethoxy]-1,3-benzothiazol-2-yl}carbamoyl)amino]ethyl}piperidine-1-carboxylate], the IC50 (MKN45 cells; [1]) was over 10000 nM and the melting point was 95 to 105 °C.
`CC(Oc1ccc2nc(NC(=O)NCCC3CCN(Cc4ccccc4)CC3)sc2c1)c1c(Cl)ccc(F)c1Cl` (centres unmarked) [Example 52, 1-[2-(1-benzylpiperidin-4-yl)ethyl]-3-{6-[1-(2,6-dichloro-3-fluorophenyl)ethoxy]-1,3-benzothiazol-2-yl}urea] showed an IC50 (c-MET) of under 100 nM, an IC50 (MET) of under 500 nM and an IC50 (MKN45 cells; [1]) of 500 to 10000 nM.
For `CCN(CC)C(CCOC(N)=O)c1nc2cc(F)c(OC(C)c3c(Cl)ccc(F)c3Cl)cc2s1` (centres unmarked) [Example 70, {6-[1-(2,6-dichloro-3-fluorophenyl)ethoxy]-5-fluoro-1,3-benzothiazol-2-yl}3-(diethylamino)propyl carbamate], the melting point was 188 to 190 °C.
In the case of `CCN(CC)C(COC(N)=O)c1nc2cc(F)c(OC(C)c3c(Cl)ccc(F)c3Cl)cc2s1` (centres unmarked) [Example 71, {6-[1-(2,6-dichloro-3-fluorophenyl)ethoxy]-5-fluoro-1,3-benzothiazol-2-yl}2-(diethylamino)ethyl carbamate], the melting point is reported as 184 to 186 °C.
Work on `CCN(CC)CCOC(=O)Nc1nc2cc(F)c(OC(C)c3c(Cl)ccc(F)c3Cl)cc2s1` (centres unmarked) [Example 71] yielded an IC50 (c-MET) of under 100 nM, an IC50 (MET) of 500 to 10000 nM and an IC50 (MKN45 cells; [1]) of 500 to 10000 nM.
`COC(COC(N)=O)c1nc2cc(F)c(OC(C)c3c(Cl)ccc(F)c3Cl)cc2s1` (centres unmarked) [Example 72, {6-[1-(2,6-dichloro-3-fluorophenyl)ethoxy]-5-fluoro-1,3-benzothiazol-2-yl}2-methoxyethyl carbamate] gave a melting point of 200 to 205 °C.
With `COCCOC(=O)Nc1nc2cc(F)c(OC(C)c3c(Cl)ccc(F)c3Cl)cc2s1` (centres unmarked) [Example 72] the IC50 (c-MET) was under 100 nM, the IC50 (MET) was 500 to 10000 nM and the IC50 (MKN45 cells; [1]) was 500 to 10000 nM.
`CC(Oc1ccc2nc(C(COC(N)=O)N3CCOCC3)sc2c1)c1c(Cl)ccc(F)c1Cl` (centres unmarked) [Example 74, {6-[1-(2,6-dichloro-3-fluorophenyl)ethoxy]-1,3-benzothiazol-2-yl}2-(morpholin-4-yl)ethyl carbamate] showed a melting point of 235 to 240 °C.
`CC(Oc1cc2sc(NC(=O)NCCCC(C)(C)OC(N)=O)nc2cc1F)c1c(Cl)ccc(F)c1Cl` (centres unmarked) [Example 87, {2-[({6-[1-(2,6-dichloro-3-fluorophenyl)ethoxy]-5-fluoro-1,3-benzothiazol-2-yl}carbamoyl)amino]ethyl}2-methylpropan-2-yl carbamate] gave a melting point of 230 °C.
`CC(Oc1cc2sc(NC(=O)NCCNC(=O)OC(C)(C)C)nc2cc1F)c1c(Cl)ccc(F)c1Cl` (centres unmarked) [Example 87] showed an IC50 (c-MET) of under 100 nM, an IC50 (MET) of 500 to 10000 nM and an IC50 (MKN45 cells; [1]) of 500 to 10000 nM.
`CNC(=O)OC(C)(C)CCCNC(=O)Nc1nc2cc(F)c(OC(C)c3c(Cl)ccc(F)c3Cl)cc2s1` (centres unmarked) [Example 95, {2-[({6-[1-(2,6-dichloro-3-fluorophenyl)ethoxy]-5-fluoro-1,3-benzothiazol-2-yl}carbamoyl)amino]ethyl}2-methylpropan-2-yl methylcarbamate] showed a melting point of 151 to 193 °C.
For `CC(Oc1cc2sc(NC(=O)NC3CC3)nc2cc1F)c1c(Cl)ccc(F)c1Cl` (centres unmarked) [Example 131, 1-cyclopropyl-3-{6-[1-(2,6-dichloro-3-fluorophenyl)ethoxy]-5-fluoro-1,3-benzothiazol-2-yl}urea], the IC50 (c-MET) was under 100 nM, the IC50 (MET) was under 500 nM and the IC50 (MKN45 cells; [1]) was under 500 nM.
